Here are results for one molecule from PMC3885398, “Evaluation of the Antitumor Effects of BPR1J-340, a Potent and Selective FLT3 Inhibitor, Alone or in Combination with an HDAC Inhibitor, Vorinostat, in AML Cancer” (PLoS ONE, 2014).

The subject of test [1] is STAT5 phosphorylation at Tyr694. In words: STAT5 phosphorylation at Tyr694 in MOLM-13 cells, Western blot. The test is classed as cell-based, human. The settings on record: MOLM-13, 20 hours, Fig. 4D. As for the experimental part: Cells were lysed in lysis buffer (50 mM Tris, pH 8.0, 150 mM NaCl, 1% Triton X-100, 0.5% sodium deoxycholate, 0.1% SDS, 1 mM sodium orthovanadate, 1 mM PMSF, and 1 mM DTT). Protein lysates were resolved by SDS-PAGE and transferred onto a polyvinylidene difluoride (PVDF) membrane (Millipore, Bedford, MA, USA). The membranes were immunoblotted with appropriate antibodies and detected using the SuperSignal reagent (Pierce, Rockford, IL, USA) followed by exposure to X-ray film.
Some histone deacetylase inhibitors (HDACi) will enhance the cytotoxic activity of FLT3 inhibitor on FLT3-ITD^+ cell via degradation of FLT3-ITD and STAT5 [24], [26], [36], [37]. To determine whether SAHA, an HDACi, can synergize with BPR1J-340 to enhance cytotoxicity in FLT3-ITD expressing cells by interfering with the FLT3-ITD and STAT5 axis, the combined effects of SAHA and BPR1J-340 on cytotoxicity were examined. The cell growth rate of MOLM-13 and MV4;11 with SAHA and BPR1J-340 combinational treatment was decreased compared with the single-drug treatment (Fig. 4A). […]
Figure 4 The effect of BPR1J-340 and SAHA versus drug combination on AML FLT3-ITD+ cells. […] (A) Viable cells were counted after staining with trypan blue dye at indicated time point (B) At 48-hours after treatment, cells were stained with FITC-labeled annexin V and propidium iodide and percentages of apoptotic cells were analyzed by flow cytometry. […]
For orientation: Immunoblotting shows a protein as a band on a membrane.

Another test deals with FLT4 (VEGFR3) (Homo sapiens, UniProt P35916). In words: VEGFR3 Kinase-Glo kinase assay. Also on record: VEGFR3 (residues M800-Y1363); purchased Upstate (Billerica, MA, USA). The test is classed as biochemical. As for the experimental part:
The FLT3 inhibitors, BPR1J-340 and AC220, were synthesized by our laboratory. The histone deacetylase inhibitor vorinostat (SAHA) was purchased from SelleckBio (Houston, TX, USA). All inhibitors were dissolved in dimethylsulfoxide (DMSO) at a stock concentration of 10 mM. The anti-FLT3 (sc-480, Santa Cruz Biotechnology, Santa Cruz, CA, USA), anti-pFLT3-Tyr591 (#3461, Cell Signaling Technology, Beverly, MA, USA) anti-STAT5 (#9363, Cell Signaling Technology), anti-pSTAT5–Tyr694 (#9351, Cell Signaling Technology), anti-cleaved poly ADP-ribose polymerase (PARP) (#9542, Cell Signaling Technology), anti-Mcl-1 (#4572, Cell Signaling Technology), anti-caspase 3 (#9662, Cell Signaling Technology) and anti-β-actin (Gtx110546, GeneTex, Irvine, CA, USA) antibodies were purchased for Western blotting analysis. The preparation of recombinant proteins, FLT3 (residues Y567-S993), VEGFR1 (residues R781-I1338) and VEGFR2 (residues V789-V1356), for biochemical kinase assay was described previously. The VEGFR3 (residues M800-Y1363) proteins were purchased from Upstate (Billerica, MA, USA).
The FLT3 and VEGFR1/2 Kinase-Glo kinase assays were performed as reported by our earlier study. […] The kinase inhibition profiling and inhibitory activity of FLT3-D835Y, CSF1R, and TRKA were determined by Invitrogen SelectScreen® kinase profiling service (Carlsbad, California, USA).
In general terms: Kinase-Glo measures the ATP left after a reaction by luminescence.

Chain of FLT4 (VEGFR3) (P35916 800-1363): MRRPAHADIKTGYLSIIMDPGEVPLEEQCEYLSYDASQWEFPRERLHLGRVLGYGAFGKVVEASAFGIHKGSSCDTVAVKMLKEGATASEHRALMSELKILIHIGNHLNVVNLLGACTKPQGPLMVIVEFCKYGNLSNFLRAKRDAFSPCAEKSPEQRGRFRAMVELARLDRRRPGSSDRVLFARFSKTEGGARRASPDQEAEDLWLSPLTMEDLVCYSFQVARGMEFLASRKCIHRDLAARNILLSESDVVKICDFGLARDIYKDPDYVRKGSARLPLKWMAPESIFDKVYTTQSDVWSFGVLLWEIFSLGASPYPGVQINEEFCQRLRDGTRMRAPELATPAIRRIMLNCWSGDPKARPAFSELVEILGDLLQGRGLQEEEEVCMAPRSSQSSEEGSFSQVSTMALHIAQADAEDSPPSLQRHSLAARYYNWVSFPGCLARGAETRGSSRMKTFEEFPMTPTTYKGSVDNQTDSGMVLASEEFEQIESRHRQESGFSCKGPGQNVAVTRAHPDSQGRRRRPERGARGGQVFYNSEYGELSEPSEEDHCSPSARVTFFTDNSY

For `CCc1cc(NC(=O)NCc2ccc(-c3cc(NC(=O)c4ccc(CN5CCN(C)CC5)cc4)[nH]n3)cc2)no1` [BPR1J-340, N1-(3-4-[([(5-ethyl-3-isoxazolyl)amino]carbonylamino)methyl]phenyl-1H-5-pyrazolyl)-4-[(4-methylpiperazino)methyl]benzamide], the “STAT5 phosphorylation at Tyr694” value in test [1] is on record as “completely block”. Also, at FLT4 (VEGFR3), the half-inhibitory concentration (IC50) (usually the point on the concentration scale where inhibition reaches its midpoint) stood at 29 ± 7 nM.
